The values below come from ChEMBL document CHEMBL3272054, “Beta-adrenoceptor studies. 2. Effects of alkyl substitution on beta-adrenoceptor blocking, antiarrhythmic, and local anesthetic activities of 1,1'-(o-phenylenedioxy)bis(3-isopropylamino-2-propanol)” (J Med Chem, 1977).

Data set [1] concerns the target Beta-2 adrenergic receptor (Cavia porcellus, UniProt Q8K4Z4). In words: Antagonist activity at beta-2 adrenergic receptor in guinea pig tracheal strip assessed as inhibition of isoprenaline-induced effect. Particulars: read-out: pA2 (converted).
Data set [2] concerns the target Beta-1 adrenergic receptor (Cavia porcellus, UniProt H0W3H1). Briefly: Antagonist activity at […] adrenergic receptor in guinea pig right atrium assessed as inhibition of isoprenaline-induced effect. More on the design: species or system Cardiac atrium.
The subject of data set [3] is Right cardiac atrium. In words: Antiarrhythmic activity in guinea pig right atrium assessed as inhibition of ouabain-induced arrhythmia. It is filed as functional, Cavia porcellus.
In data set [4] the test system is Right cardiac atrium. In words: Negative chronotropic activity in guinea pig right atrium assessed as atrial rate at MEC after 30 mins. The settings on record: Cavia porcellus. Format: functional, tissue-based.
The test system of data set [5] is Right cardiac atrium. Briefly: Negative inotropic activity in guinea pig right atrium assessed as contractile force at MEC after 30 mins. It is filed as functional, tissue-based. The settings on record: Cavia porcellus.
Data set [6] is described as follows: Local anesthetic activity in desheathed frog sciatic nerve. Format: functional, tissue-based, Anura.
Data set [7] is described as follows: 1-octanol-phosphate buffer apparent partition coefficient, log P of the compound at pH 7.4. Format: physicochemical.
Data set [8] is described as follows: Apparent dissociation constant, pKa of the compound. Format: physicochemical.

The structures appear in SMILES notation. Active and inactive are the calls of the source. The rule behind the calls is not given here.

Beta-1 adrenergic receptor, sequence (H0W3H1 1-470): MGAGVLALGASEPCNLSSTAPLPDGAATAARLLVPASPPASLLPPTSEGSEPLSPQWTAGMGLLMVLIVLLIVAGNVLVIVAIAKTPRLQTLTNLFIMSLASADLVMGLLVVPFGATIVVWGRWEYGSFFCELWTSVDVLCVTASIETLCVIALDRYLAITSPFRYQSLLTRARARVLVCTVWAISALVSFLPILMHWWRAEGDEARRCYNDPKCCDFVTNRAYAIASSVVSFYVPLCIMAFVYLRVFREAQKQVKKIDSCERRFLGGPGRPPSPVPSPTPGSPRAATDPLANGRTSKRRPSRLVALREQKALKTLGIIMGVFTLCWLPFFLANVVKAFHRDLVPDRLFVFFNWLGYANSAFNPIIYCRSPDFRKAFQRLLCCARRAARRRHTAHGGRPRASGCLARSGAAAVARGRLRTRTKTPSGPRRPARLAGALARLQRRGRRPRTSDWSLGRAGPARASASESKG
Beta-2 adrenergic receptor, sequence (Q8K4Z4 whole entry): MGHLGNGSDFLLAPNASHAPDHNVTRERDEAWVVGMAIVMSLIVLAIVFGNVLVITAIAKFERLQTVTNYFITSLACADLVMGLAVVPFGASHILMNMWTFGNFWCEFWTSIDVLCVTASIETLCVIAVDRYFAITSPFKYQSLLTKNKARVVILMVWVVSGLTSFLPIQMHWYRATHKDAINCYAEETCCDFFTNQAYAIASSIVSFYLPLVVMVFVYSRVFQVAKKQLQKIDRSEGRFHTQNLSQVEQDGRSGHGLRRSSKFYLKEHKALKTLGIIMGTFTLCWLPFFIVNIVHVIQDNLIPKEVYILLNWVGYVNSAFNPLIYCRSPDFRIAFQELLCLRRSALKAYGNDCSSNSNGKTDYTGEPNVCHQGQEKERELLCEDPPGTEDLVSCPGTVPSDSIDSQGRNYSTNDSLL

For orientation: pA2 means a measure of antagonist potency on a negative log scale. As a reminder, the pEC50 is the EC50 on a negative log10 scale, so that one unit is a factor of ten. A higher pEC50 goes with a low EC50. What is called logD is the decadic logarithm of the distribution of all forms, ionised or not, between an organic phase and buffer at a given pH. By pKa is commonly meant the pH at which an ionisable group is half protonated. `CC(C)NCC(O)COc1cc2ccccc2cc1OCC(O)CNC(C)C.Cl` (stereo not drawn): the Kb in data set [1] was 158 nM. In data set [2], the pA2 stood at 5.45. For the same compound, the “-logMIC” value in data set [3] came to 5.3. Moreover, the result in data set [4] and in data set [5] was Active. Besides, in data set [6], the pEC50 came to 2.2. In addition, in data set [7], the logD is -0.81. Besides, the pKa in data set [8] came out at 9.18.
As for `CC(C)NCC(O)COc1cc2c(cc1OCC(O)CNC(C)C)CCCC2` (stereo not drawn), the Kb in data set [1] was 129 nM. In addition, the pA2 in data set [2] is 5.83. In addition, in data set [3], the “-logMIC” value worked out at 5. In addition, the result in data set [4] and in data set [5] was Active. For the same compound, in data set [6], the negative-log EC50 (pEC50) stood at 2.02. For the same compound, in data set [7], the logD is -0.726. Moreover, the pKa in data set [8] worked out at 9.17.
For the compound `Cc1cccc(OCC(O)CNC(C)C)c1OCC(O)CNC(C)C.Cl` (stereo not drawn), in data set [3], the “-logMIC” value worked out at 4.7. In addition, the outcome in data set [4] and in data set [5] was Active. Also, the negative-log EC50 (pEC50) in data set [6] was found to be 1.8. Besides, the logD in data set [7] was -1.17. In data set [8], the pKa amounted to 9.23.
Turning to `CC(C)NCC(O)COc1ccccc1OCC(O)CNC(C)C` (stereo not drawn), the “-logMIC” value in data set [3] was determined as 3.7. In addition, the result in data set [4] and in data set [5] was Active. Also, the pEC50 in data set [6] is 1.29. For the same compound, the logD in data set [7] is -1.19. In addition, the pKa in data set [8] came to 9.22.
Take `Cc1ccc(OCC(O)CNC(C)C)c(OCC(O)CNC(C)C)c1.Cl` (stereo not drawn): the “-logMIC” value in data set [3] is 4.3. Besides, the result in data set [4] and in data set [5] was Active. In data set [6], this compound showed a pEC50 of 1.69. Also, the logD in data set [7] was -1.16. Also, the pKa in data set [8] came to 9.24.
Turning to `CC(C)NCC(O)COc1cccc2ccccc12` (stereo not drawn), the result in data set [4] and in data set [5] was Active.
Turning to `CC(C)NCC(O)COc1cccc(C(C)C)c1OCC(O)CNC(C)C.Cl` (stereo not drawn), the “-logMIC” value in data set [3] stood at 5. Further, the result in data set [4] and in data set [5] was Active. Further, in data set [6], the pEC50 is reported as 2. Besides, in data set [7], the logD is -0.747. In data set [8], the pKa stood at 9.24.
`CC(C)NCC(O)COc1ccc(C(C)C)cc1OCC(O)CNC(C)C.Cl` (stereo not drawn): the “-logMIC” value in data set [3] was found to be 4.7. Moreover, the outcome in data set [4] and in data set [5] was Active. The pEC50 in data set [6] was determined as 2.07. Besides, the logD in data set [7] was -0.833. Moreover, the pKa in data set [8] worked out at 9.3.
